What all share (assay type): in vivo
Series [1] deals with HBV transgenic mice. As to the kind of experiment: Serum HBV DNA copy number in HBV transgenic mice, real-time PCR. As to conditions: for effective rate (serum HBV DNA): tail i.v. daily. The text has this:
HBV transgenic mice were purchased from Guangzhou Junketaite Pharmaceutical Technology Co., Ltd. The animal model is a 1.3 copies high expressing replicative form HBV whole-genome transgenic mice Tg (HBV 1.3 genome) Swb established using microinjection method by Guangzhou Junketaite Pharmaceutical Technology Co., Ltd. Serum HBsAg and HBeAg can be analyzed with common ELISA kit; serum HBV DNA of 93.93% positive transgenic mice is 10^4˜10^6 copy/mL; liver tissues in immunohistochemistry have HBsAg (cytoplasmic type) and HBcAg (karyotype) expression. […] This makes a good foundation for the transgenic model to be used in evaluating anti-HBV drugs.
Prepare D-TTK001 aseptically. Administer 2.5 mg/kg (10 mice) or 5.0 mg/kg (42 mice) based on mice weight through tail intravenous injection in a volume of 50 μL. Administer 50 μL of sterile PBS to blank control group (10 mice). Mice are 6-8 months old, half male and half female. Inject daily for 3 weeks (21 days in total). Take artery blood from mice tail before administration for future measurement of HBV DNA content in mice blood, record as T0 group. Take artery blood from mice tail after one week (T1+ group), two weeks (T2+ group), and three weeks (T3+ group) of administration. Take blood after one week of stopping administration (T4 group). Blood samples were standed in room temperature for 2-4 hours to prepare serum. Store samples in −80° C. refrigerator for future measurement of HBV DNA content in mice blood.
(i) Preparation of test samples: Take out the test samples from −80° C. refrigerator. Place it at room temperature for balancing. Take corresponding amount of reaction liquid, enzyme mix and internal standard by proportion (reaction liquid 38 μL per serving+enzyme mix 2 μL per serving+internal standard 0.2 μL per serving) according to numbers of test sample, negative control sample and reference sample, mix sufficiently as PCR-mix. Sample treatment (negative control, positive control quantitative reference and test samples are treated synchronously): Add 5 μL of cell nucleic releaser into each PCR reaction tube, then add 5 μL test sample into each tube, absorb back and forth for 3-5 times and mix; after more than 10 minutes interval, add 40 μL of PCR-mix into each tube, close the tubes with caps, centrifuge at 2000 rpm for 30 seconds.
Utilizing real time PCR HBV DNA assay kit manufactured by Sun Yat-sen University Daan Gene Co., Ltd. according to the manufacturer's specification as followed: Place PCR reaction tube into sample cell of PCR instrument, set negative control, positive control, quantitative references A-D and test sample in corresponding order, and then set sample name and concentration of quantitative reference. Selection of fluorescence detection channel: for example, in ABI 7300 instrument, i) select FAM channel (reporter: FAM, quencher: none) to detect HBV-DNA; ii) select HEX/VIC channel (reporter: HEX/VIC, quencher: none) to detect HBV-internal standard; iii) set passive reference as ROX.
Set analysis conditions: adjust start value, stop vale of Baseline and Value of Threshold according to analyzed image (arbitrary adjustable by user according to actual needs, start value can be 1˜10, stop value can be 5˜10, Value can be 0.01˜0.2) to optimize standard curve in “Std curve” window, i.e., correlation between −1.0˜−0.97. Select “Analyze” in “Analysis” menu for automatic result analysis. Record value (C) of unknown variable in “Tray” window. “C” indicates concentration or content of the sample.

For series [2], the system named is HepG2-X cells inoculated tumor in nude mice. As to the kind of experiment: Survival of nude mice bearing HepG2-X inoculated tumor. As to conditions: 0.1 mg/kg or 5.0 mg/kg, tail i.v. daily for 30 days.
Description: Suspend HepG2-X cells at exponential phase by treating with trypsin, count the number of cells, dilute to 1×10^7 cells/mL with sterile physiological saline, and then store in ice water. Take two female BALB/C mice of 4˜6 weeks age: i) one mouse in control group, inject 0.2 mL of above diluted cells to the armpit of right forelimb for each mouse, then only inject 0.5 mL of sterilized distilled water (without polypeptide drugs); ii) one mouse in experimental group with an administration dose of 10 mg/kg weight. Inject 0.2 mL of above diluted cells to the armpit of right forelimb for each mouse, after 20 days of injection, remove tumor tissue aseptically, cut into small tissue pieces, back inoculate to female BALB/C mice of 4˜6 weeks age for 18 mice in total. After tumor volume (V=L×W^2 0.5) reaches 100 mm^3, divide 18 mice into 3 groups each having 6 mice. The first group is control group, tail intravenous injecting with sterile PBS. […] Inject daily for 30 days, measure mice weight and tumor volume before each injection, and observe survival time of nude mice. After mice dies, perform analysis using Kaplan-Meier method to plot survival curve, Log-Rank is employed for statistical analysis.
The nature of series [3]: Acute toxicity test in Kunming white mice. The conditions noted are these: 500 mg/kg, tail intravenous injection, observed 24 hrs. As for the experimental part:
Control group and experimental group each consists of 10 Kunming white mice, with 5 females and 5 males in each group, respectively. Experimental group were injected with polypeptide D-TTK001 with the concentration of 500 mg/kg (10 mg lyophilized polypeptide dissolved in 0.8 mL sterilized distilled water) by tail intravenous injection; control group were injected with 0.8 mL sterilized distilled water. Consecutively observing the mice for 24 hrs. after injection.

Non-standard residues stand in square brackets, D forms with d. Residues, ends and D or L forms follow the SMILES beside them.

In the case of `CSCC[C@@H](NC(=O)[C@H](NC(=O)[C@@H](C)NC(=O)[C@@H](CO)NC(=O)CN)C(C)C)C(=O)N[C@H](Cc1ccccc1)C(=O)N[C@H](CO)C(=O)N[C@H](CO)C(=O)N[C@H](CCCCN)C(=O)N[C@H](CCC(=O)O)C(=O)N[C@H](CCCNC(=N)N)C(=O)NCC(=O)O` [D-TTK001, Gly-D-Ser-D-Ala-D-Val-D-Met-D-Phe-D-Ser-D-Ser-D-Lys-D-Glu-D-Arg-Gly] (H-G[dS][dA][dV][dM][dF][dS][dS][dK][dE][dR]G-OH; N-terminus and C-terminus assumed), the “copy number of HBV DNA in serum” value in series [1] (2.5 mg/kg and 5.0 mg/kg, tail intravenous injection) was “clearly reduced”. Moreover, in series [1] (2.5 mg/kg group, from one week (T1+ group), 3 out of 10 mice), the “effective rate (serum HBV DNA)” value is 30%. Moreover, in series [1] (5.0 mg/kg group, 23 out of 42 mice), the “effective rate (serum HBV DNA)” value is 54.8%. Moreover, the “time dependent decreasing effective rate” value in series [1] (5.0 mg/kg group, 7 out of 23 mice) amounted to 30.4%. Besides, the “effective rate (serum HBV DNA) from one week (T1+ group)” value in series [1] (5.0 mg/kg group, 18 out of 39 mice) was found to be 46.2%. In addition, the “survival of tumor bearing nude mice” value in series [2] was “clearly prolonged”. Moreover, in series [3], the “acute toxicity: behaviors” value is given as “do not have abnormal behaviors” and the “acute toxicity: changes in weight as compared with control group” value is recorded as “no abnormal changes in weight”.

The values above are taken from patent US10570176B2, “Anti-hepatitis B virus X protein polypeptide pharmaceutical” (priority 2015, dated 2020).
